Source: patent US20260062422A1 (Halda Therapeutics OpCo, Inc., priority 2022, published 2026)

How the values were obtained:
[1] = system: T-Rex 293 cell line SC3 cells lacking increased expression of androgen receptor protein; assay: Cellular growth inhibition, T-Rex 293 SC3 cells without doxycycline, CellTiter-Glo; type: cell-based; conditions: T-Rex 293 SC3 cells not exposed to doxycycline, CellTiter-Glo 2.0
Outline: (§1)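 Luminescence read-out (CellTiter-Glo 2.0) after 72 h compound exposure; GI50 by four-parameter nonlinear regression, baseline set at zero luminescence. SC3 cells, a doxycycline-inducible wild-type AR clone of T-Rex 293, were cultured ±10 ng/mL doxycycline in charcoal-dextran FBS medium.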

VCaP cells = assay: Cellular growth inhibition assay for VCaP cells, CellTiter-Glo; type: cell-based, human; conditions: 72 hours treatment, CellTiter-Glo 2.0
Outline: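 GI50 values come from four-parameter curve fits of luminescence data normalized to a zero baseline. Compound, in medium with 0.5% DMSO, was added one day after plating and left for 72 h before CellTiter-Glo 2.0 addition.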

[2] = system: T-Rex 293 cell line SC3 cells having increased expression of androgen receptor protein due to exposure to doxycycline; assay: Cellular growth inhibition, T-Rex 293 SC3 cells with doxycycline (androgen receptor induced), CellTiter-Glo; type: cell-based; conditions: T-Rex 293 SC3 cells with 10 ng/mL doxycycline (increased androgen receptor expression)
Outline: as §1

T47D cells = assay: Cellular growth inhibition assay for T47D cells, CellTiter-Glo; type: cell-based, human; conditions: 72 hours treatment, CellTiter-Glo 2.0 cell viability
Outline: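 Growth inhibition as GI50, fitted with four parameters to CellTiter-Glo luminescence after 72 h of compound exposure (0.5% DMSO). Cells were T47D, grown in insulin-supplemented (0.2 units/mL) DMEM with 10% FBS and treated one day post-seeding.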

Compound	GI50 ([1]; 72 h) [nM]	GI50 (VCaP cells; Homo sapiens, VCaP, 72 h) [nM]	GI50 ([2]; 72 h) [nM]	GI50 (T47D cells; Homo sapiens, T47D, 72 h) [nM]	GI50 (VCaP cells) [nM]	GI50 ([1]; 72 hours) [nM]	GI50 (T47D cells) [nM]	GI50 ([2]; 72 hours) [nM]
Cc1sc2c(c1C)C(c1ccc(C(C)(C)N3CC4(CCCN(c5ncc(C(=O)N[C@H]6C(C)(C)[C@H](Oc7ccc(C#N)c(Cl)c7)C6(C)C)cn5)C4)C3)cc1)=N[C@@H](Cc1ncco1)c1nnc(C)n1-2 [Compound I-439]	> 3000	> 3000	< 500	> 3000	–	–	–	–
Cc1sc2c(c1C)C(c1ccc(-n3ccc(C4CCN(c5ncc(C(=O)N[C@H]6C(C)(C)[C@H](Oc7ccc(C#N)c(Cl)c7)C6(C)C)cn5)CC4)n3)cc1)=N[C@@H](Cc1ncco1)c1nnc(C)n1-2 [Compound I-441]	500 to 1500	< 500	< 500	< 500	–	–	–	–
Cc1sc2c(c1C)C(c1ccc(-c3ncc(C4CCN(c5ncc(C(=O)N[C@H]6C(C)(C)[C@H](Oc7ccc(C#N)c(Cl)c7)C6(C)C)cn5)CC4)o3)cc1)=N[C@@H](Cc1ncco1)c1nnc(C)n1-2 [Compound I-442]	> 3000	< 500	< 500	< 500	–	–	–	–
Cc1sc2c(c1C)C(c1ccc(-c3cc(OC4CCN(c5ncc(C(=O)N[C@H]6C(C)(C)[C@H](Oc7ccc(C#N)c(Cl)c7)C6(C)C)cn5)CC4)cs3)cc1)=N[C@@H](Cc1ncco1)c1nnc(C)n1-2 [Compound I-443]	> 3000	< 500	< 500	> 3000	–	–	–	–
Cc1sc2c(c1C)C(c1ccc(-c3ccsc3OC3CCN(c4ncc(C(=O)N[C@H]5C(C)(C)[C@H](Oc6ccc(C#N)c(Cl)c6)C5(C)C)cn4)CC3)cc1)=N[C@@H](Cc1ncco1)c1nnc(C)n1-2 [Compound I-444]	> 3000	< 500	< 500	> 3000	–	–	–	–
Cc1sc2c(c1C)C(c1ccc(CC3CC(OC4CCN(c5ncc(C(=O)N[C@H]6C(C)(C)[C@H](Oc7ccc(C#N)c(Cl)c7)C6(C)C)cn5)CC4)C3)cc1)=N[C@@H](C)c1nnc(C)n1-2 (some centres unmarked) [Compound I-445]	> 3000	–	< 500	< 500	< 500	–	–	–
Cc1sc2c(c1C)C(c1ccc(CC3CC4(CCN(c5ccc(C(=O)N[C@H]6C(C)(C)[C@H](Oc7ccc(C#N)c(Cl)c7)C6(C)C)nc5)CC4)C3)cc1)=N[C@@H](C)c1nnc(C)n1-2 [Compound I-447]	> 3000	500 to 1500	< 500	< 500	–	–	–	–
Cc1sc2c(c1C)C(c1ccc(CC3CC4(CCN(c5cnc(C(=O)N[C@H]6C(C)(C)[C@H](Oc7ccc(C#N)c(Cl)c7)C6(C)C)cn5)CC4)C3)cc1)=N[C@@H](C)c1nnc(C)n1-2 [Compound I-448]	> 3000	> 3000	< 500	< 500	–	–	–	–
Cc1sc2c(c1C)C(c1ccc(N3CC(CC4CCN(c5ccc(C(=O)N[C@H]6C(C)(C)[C@H](Oc7ccc(C#N)c(Cl)c7)C6(C)C)nc5)CC4)C3)cc1)=N[C@@H](C)c1nnc(C)n1-2 [Compound I-449]	> 3000	> 3000	> 3000	500 to 1500	–	–	–	–
Cc1sc2c(c1C)C(c1ccc(N3CC(CC4CCN(c5cnc(C(=O)N[C@H]6C(C)(C)[C@H](Oc7ccc(C#N)c(Cl)c7)C6(C)C)cn5)CC4)C3)cc1)=N[C@@H](C)c1nnc(C)n1-2 [Compound I-450]	> 3000	> 3000	500 to 1500	< 500	–	–	–	–
Cc1sc2c(c1C)C(c1ccc(N3CCC[C@@H](OCCc4ncc(C(=O)N[C@H]5C(C)(C)[C@H](Oc6ccc(C#N)c(Cl)c6)C5(C)C)cn4)C3)cc1)=N[C@@H](Cc1ncco1)c1nnc(C)n1-2 [Compound I-451]	500 to 1500	< 500	< 500	500 to 1500	–	–	–	–
Cc1sc2c(c1C)C(c1ccc(-c3ncc(C4CCN(c5ncc(C(=O)N[C@H]6C(C)(C)[C@H](Oc7ccc(C#N)c(Cl)c7)C6(C)C)cn5)CC4)s3)cc1)=N[C@@H](Cc1ncco1)c1nnc(C)n1-2 [Compound I-452]	< 500	< 500	< 500	< 500	–	–	–	–
Cc1sc2c(c1C)C(c1ccc(-c3cc(C4CCN(c5ncc(C(=O)N[C@H]6C(C)(C)[C@H](Oc7ccc(C#N)c(Cl)c7)C6(C)C)cn5)CC4)on3)cc1)=N[C@@H](Cc1ncco1)c1nnc(C)n1-2 [Compound I-453]	> 3000	< 500	< 500	< 500	–	–	–	–
Cc1sc2c(c1C)C(c1ccc(-c3noc(C4CCN(c5ncc(C(=O)N[C@H]6C(C)(C)[C@H](Oc7ccc(C#N)c(Cl)c7)C6(C)C)cn5)CC4)n3)cc1)=N[C@@H](Cc1ncco1)c1nnc(C)n1-2 [Compound I-454]	< 500	< 500	< 500	500 to 1500	–	–	–	–
Cc1sc2c(c1C)C(c1ccc(-n3nccc3C3CCN(c4ncc(C(=O)N[C@H]5C(C)(C)[C@H](Oc6ccc(C#N)c(Cl)c6)C5(C)C)cn4)CC3)cc1)=N[C@@H](Cc1ncco1)c1nnc(C)n1-2 [Compound I-455]	> 3000	< 500	< 500	> 3000	–	–	–	–
Cc1sc2c(c1C)C(c1ccc(OC3CC4(CCN(c5ncc(C(=O)N[C@H]6C(C)(C)[C@H](Oc7ccc(C#N)c(Cl)c7)C6(C)C)cn5)CC4)C3)c(F)c1)=N[C@@H](Cc1ncco1)c1nnc(C)n1-2 [Compound I-456]	> 3000	1500 to 3000	< 500	> 3000	–	–	–	–
Cc1sc2c(c1C)C(c1ccc(OC3CC4(CCN(c5ncc(C(=O)N[C@H]6C(C)(C)[C@H](Oc7ccc(C#N)c(Cl)c7)C6(C)C)cn5)CC4)C3)cc1F)=N[C@@H](Cc1ncco1)c1nnc(C)n1-2 [Compound I-457, N-[3-(3-chloro-4-cyano-phenoxy)-2,2,4,4-tetramethyl-cyclobutyl]-2-[2-[3-fluoro-4-[(9S)-4,5,13-trimethyl-9-(oxazol-2-ylmethyl)-3-thia-1,8,11,12-tetrazatricyclo[8.3.0.02,6]trideca-2(6),4,7,10,12-pentaen-7-yl]phenoxy]-7-azaspiro [3.5]nonan-7-yl]pyrimidine-5-carboxamide]	< 500	< 500	< 500	< 500	–	–	–	–
Cc1sc2c(c1C)C(c1ccc(N3CC4(CCC(Cc5ncc(C(=O)N[C@H]6C(C)(C)[C@H](Oc7ccc(C#N)c(Cl)c7)C6(C)C)cn5)CC4)C3)cc1)=N[C@@H](Cc1ncco1)c1nnc(C)n1-2 [Compound I-458]	< 500	< 500	< 500	< 500	–	–	–	–
Cc1sc2c(c1C)C(c1ccc(N3CCC4(CC3)CC(Cc3ncc(C(=O)N[C@H]5C(C)(C)[C@H](Oc6ccc(C#N)c(Cl)c6)C5(C)C)cn3)C4)cc1)=NC(Cc1ncco1)c1nnc(C)n1-2 (some centres unmarked) [Compound I-459]	–	–	< 500	–	> 3000	> 3000	1500 to 3000	–
Cc1sc2c(c1C)C(c1ccc(N3CCC4(CC3)CC(Cc3ncc(C(=O)N[C@H]5C(C)(C)[C@H](Oc6ccc(C#N)c(Cl)c6)C5(C)C)cn3)C4)cc1)=NC(Cc1ncco1)c1nnc(C)n1-2 (some centres unmarked) [Compound I-460]	–	–	–	–	< 500	500 to 1500	< 500	< 500
Cc1sc2c(c1C)C(c1ccc(OC3CC4(CCN(c5ncc(C(=O)N[C@H]6C(C)(C)[C@H](Oc7ccc(C#N)c(Cl)c7)C6(C)C)cn5)CC4)C3)cc1)=NC1(CC1)c1nnc(C)n1-2 [Compound I-461]	500 to 1500	< 500	< 500	< 500	–	–	–	–
Cc1sc2c(c1C)C(c1ccc(C#CC3CC4(C3)CN(c3ncc(C(=O)N[C@H]5C(C)(C)[C@H](Oc6ccc(C#N)c(Cl)c6)C5(C)C)cn3)C4)cc1)=NC1(CC1)c1nnc(C)n1-2 [Compound I-462]	500 to 1500	< 500	< 500	500 to 1500	–	–	–	–
Cc1sc2c(c1C)C(c1ccc(C(C)(C)N3CC4(CCCN(c5ncc(C(=O)N[C@H]6C(C)(C)[C@H](Oc7ccc(C#N)c(Cl)c7)C6(C)C)cn5)C4)C3)cc1)=N[C@@H](C)c1nnc(C)n1-2 [Compound I-464]	> 3000	< 500	< 500	> 3000	–	–	–	–
Cc1sc2c(c1C)C(c1ccc(C3CC(C4CCN(c5ncc(C(=O)N[C@H]6C(C)(C)[C@H](Oc7ccc(C#N)c(Cl)c7)C6(C)C)cn5)CC4)C3)cc1)=NC(C)c1nnc(C)n1-2 (some centres unmarked) [Compound I-465]	> 3000	–	< 500	< 500	< 500	–	–	–
Cc1sc2c(c1C)C(c1ccc(C3CC(C4CCN(c5ncc(C(=O)N[C@H]6C(C)(C)[C@H](Oc7ccc(C#N)c(Cl)c7)C6(C)C)cn5)CC4)C3)cc1)=NC(C)c1nnc(C)n1-2 (some centres unmarked) [Compound I-466]	–	–	–	–	> 3000	> 3000	< 500	< 500
Cc1sc2c(c1C)C(c1ccc(C3CC(C4CCN(c5ncc(C(=O)N[C@H]6C(C)(C)[C@H](Oc7ccc(C#N)c(Cl)c7)C6(C)C)cn5)CC4)C3)cc1)=NC(C)c1nnc(C)n1-2 (some centres unmarked) [Compound I-467]	–	–	–	–	< 500	> 3000	< 500	< 500
